Like-named read-outs stand apart in the source and are kept apart here.
Experiments:
Assay type in all cases: cell-based
JOK cells [1] = test: Migration of JOK cells through HUVEC in transwells; settings: 5 or 20 μM
Description: Migration Protocol. Migration chambers (transwells) (Transwell 5.0 m polycarbonate membrane Costar) were coated overnight (37° C., 5% CO2) with 100 μL of fibronectine solution containing BSA (1 mg/ml) and LHC Basal Medium. Primary HUmbilical Vein Endothelial Cells (HUVEC) were seeded in each transwell (100 000/well) and cultured for 24 hours (37° C., 5% CO2). To evaluate B cell migration, JOK cells were added (300 000/well) to each transwell upper chamber containing RPMI 1640 medium (BioWest) containing 0.5% BSA and SDF1 (200 ng/ml) was added in the bottom chamber. Cells were cultures in the presence or absence of a test compound (GSK-7975-A, SKF-93365 and 6αa) or solvent. After 24 hours (37° C., 5% CO2), migrated cells were collected in the bottom chambers and counted by flow cytometry. The percentages of migration were calculated for each experimental collection.

PANC-1 cells [2] = test: PANC-1 cytotoxicity (Cell Tox green assay); settings: 5 and 20 μM, 24 hours
Description: (§1) Analysis of Cell Proliferation. For PANC-1 cell proliferation and cell cytotoxicity measurements, […] were seeded in 96 well-plates in 100 μL of DMEM medium. Cells were incubated for 24 hours at 37° C. with 3 different SOCE inhibitors (GSK-7975-A, SKF-93365 and 6αa) at 2 different concentrations (5 and 20 μM) compared to DMSO and untreated cells. Cell proliferation was evaluated using the Cell Titer kit proliferation assay (Promega). Cytotoxicity was evaluated using the Cell Tox green cytotoxicity assay (Promega). All the kits were used following manufacturer recommendations and using a plate reader.

[3] = system: store-operated Ca^2+ entry in HEK 651 HS1; test: Store-operated Ca2+ entry in HEK 651 HS1 cell line; settings: for Effect on amplitude of SOCE peak: % of inhibition (−) or activation
Description: (§2) The effects of the molecules developed were tested on PLP-B lymphocytes. Store-operated Ca^2+ entry was induced by depletion of Endoplasmic Reticulum Ca^2+ stores (ER Ca^2+ stores) with thapsigargin (Tg) in a Ca^2+-free medium and measured following the addition of 1.8 mM of CaCl2) in the extracellular medium. The results are compared to the results obtained for known SOCE inhibitors SKF-96365, GSK-7975A, Synta 66.
Then, effects of the molecule that gave the best results in this test (i.e., molecule 6αa) were assessed in two cancer cell lines, namely: HEK 293 and HEK 651 HS1 tumor cell lines.

PANC-1 cells [4] = test: PANC-1 cell proliferation (Cell Titer kit); settings: 5 and 20 μM, 24 hours, to a greater extent than GSK-7975A and SKF-93365
Description: as §1

JOK cells [5] = test: JOK cell viability and apoptosis assays (LIVE/DEAD, Annexin V-FITC/PI)
Description: Cell Viability Assays. JOK cells were treated with test compounds (GSK-7975-A, SKF-93365 and 6αa) or solvent for 48 hours. JOK cells viability was then assessed using LIVE/DEAD cell viability assays kit (Abcam). Differentially labeled live and dead cells with fluorescent dyes are analyzed by flow cytometry.
Apoptosis Assay. Apoptosis of JOK cells were determined by Annexin V-FITC/PI staining (Biolegend) using flow cytometry. The percentage of annexin V-FITC and propidium iodide-[…] cells were assessed using Kaluza 1.3.

HUVEC cells = test: HUVEC cell death (Annexin/Propidium Iodide, flow cytometry); settings: HUVEC (FIG. 8)
Description: FIG. 8. In vitro Effects of 6αa, GSK-7975-A and SKF-93365 on HUVEC Cell Death. […] Cell death was analyzed by flow cytometry following Annexin/Propidium Iodide labeling. Percentages of living cells, necrotic cells and apoptotic cells submitted to GSK-7975A (A), SKF-93365 (B), and 6αa (DAD 3-473) (C) treatment were normalized to the DMSO treatment conditions. Histograms present the amounts of apoptotic cells (annexin/PI positive cells) detected in each experimental condition after treatment with GSK-7975A (D), SKF-93365 (E), and 6αa (DAD 3-473) (F). Data are expressed as mean±SEM of n observations (n=2). Data are analyzed with non parametric Mann Withney analysis, *P<0.05, **P<0.01 and ***P<0.001.

[6] = system: store-operated Ca^2+ entry in PLP-B lymphocytes; test: Store-operated Ca2+ entry after thapsigargin depletion of ER Ca2+ stores in PLP-B lymphocytes; settings: for inhibition at 0.1 µM / inhibition at 1 µM / inhibition at 10 µM / inhibition at 50 µM / inhibition at 100 µM: PLP-B lymphocytes, % of inhibition (−) or activation
Description: as §2

JOK cells [7] = test: JOK cell proliferation assay
Description: Cell Proliferation Assays. Cultured JOK cells were seeded in 96-well culture plates with or without inhibitors. After 48 hours, cell proliferation was assessed using WST-8 assay (Sigma Aldrich). The absorbance was read at 450 nm on a plate reader.

PANC-1 cells [8] = test: PANC-1 cell apoptosis (AnnexinV-FiTC/PI, flow cytometry); settings: even at a concentration of 5 μM
Description: Analysis of Cell Apoptosis. For PANC-1 cell apoptosis measurements, 5×10^6 cells were seeded in 12 well-plates. Cells were incubated for 24 hours with a test compound (GSK-7975-A, SKF-93365 and 6αa) at two different concentrations (5 and 20 μM) compared to DMSO and untreated cells at 37° C. After washing, cells were taken off plates using an enzyme-free solution. Cells were centrifuged for 5 minutes at 1500 rpm and suspended in […] of PBS containing 1 μL of AnnexinV-FiTC and 1 μL of propidium iodide (PI) for 15 minutes at room temperature in the dark. Evaluation of Annexin and PI staining was performed using a flow cytometer (Navios, Beckman Counter) to evaluate cell apoptosis and necrosis.

JOK cells [9] = test: JOK cell cycle analysis (PI staining, flow cytometry)
Description: Cell Cycle Analysis. JOK cells were incubated with or without test compounds (GSK-7975-A, SKF-93365 and 6αa) for 48 hours and then washed with cold PBS and fixed with 70% ethanol for 30 minutes at room temperature. Cell cycle was analyzed using propidium iodide (PI). Cell-cycle distribution was determined by PI-staining using flow cytometry and analyzed by Kaluza 1.3.

[10] = Lymphocyte, DMSO control 100%, read-out: Effect on amplitude of SOCE Peak
[11] = Lymphocyte, thapsigargin (Tg) peak, read-out: Effect on amplitude of Tg Peak

COc1ccc(CCOc2ccc(CCn3cnc4ccccc43)cc2)cc1 [6αa DAD 3-473, 1-[4-(4-Methoxyphenethoxy)phenethyl]-1H-benzo[d]imidazole] was tested, and the “transendothelial migration through HUVEC of JOK cells” value (JOK cells [1]) was “does significantly inhibit”, the “cytotoxicity in cancer PANC-1 cells” value (PANC-1 cells [2]) was “induces cytotoxicity” and the “Effect on amplitude of SOCE peak” value ([3]; 5 μM) was −5%. The “Effect on amplitude of SOCE peak” value ([3]; 10 μM) was −35%, the “Effect on amplitude of SOCE peak” value ([3]; 50 μM) was −86% and the IC50 ([3]; average of three assays, ±0.5 μM) was 25 µM. For the same molecule, the PANC-1 proliferation (PANC-1 cells [4]) was “significantly reduces”, the “death of B cells” value (JOK cells [5]; JOK B cells (FIG. 7)) was “does not induce death” and the “apoptosis or necrosis of cells” value (JOK cells [5]; JOK B cells (FIG. 7), 5 or 20 μM, treated for 48 hours) was “do not induce apoptosis or necrosis”. The cell survival (JOK cells [5]; JOK cells) was “without significant reduction”, the “death of HUVEC cells” value (HUVEC cells) was “does not induce death” and the “apoptosis or necrosis of cells” value (HUVEC cells; 5 or 20 μM, treated for 48 hours) was “do not induce apoptosis or necrosis”. The inhibition at 0.1 µM [6, 10] was 3%, the inhibition at 0.1 µM [6, 11] was -5% and the inhibition at 1 µM [6, 10] was -2%. It also gave an inhibition at 1 µM [6, 11] of -7%, an inhibition at 10 µM [6, 10] of 24% and an inhibition at 10 µM [6, 11] of 5%. The inhibition at 50 µM [6, 10] was 79%, the inhibition at 50 µM [6, 11] was 5% and the inhibition at 100 µM [6, 10] was 81%. The inhibition at 100 µM [6, 11] was 2%, the IC50 ([6]; Lymphocyte, SOCE in PLP-B lymphocytes, average of three assays, ±0.5 μM) was 15.4 µM and the “effectiveness as modulator that inhibits SOCE without inhibiting Ca2+ release from ER stores” value ([6]; comparison of the series tested) was “best candidate”. The JOK proliferation (JOK cells [7]) was “significantly reduces”, the “PANC-1 cell death by apoptosis” value (PANC-1 cells [8]) was “induces PANC-1 cells by apoptosis” and the cell cycle (JOK cells [9]) was “affects cell cycle”.

Reference: US12686664B2, “SOCE inhibitors and therapeutic uses thereof” (Institut National de la Santé et de la Recherche Médicale …, priority 2020, dated 2026)
